Literature values, collected in patent US6642275B2, “Formulation for respiratory tract administration” (Euro- Celtique, S.A., priority 1995, dated 2003).
Like-named read-outs stand apart in the source and are kept apart here.

How the values were obtained:
[1] = for plasma clearance rate: 100 mg IV dose
[2] = animal models, M1 vs tramadol
[3] = tested on: opioid receptors
[4] = single oral dose, adjusted for body weight

Compound	plasma clearance rate ([1]; females) [mL/min/kg]	plasma clearance rate ([1]; males) [mL/min/kg]	higher area under the concentration-time curve in females compared to males [1, 4] [%]	higher peak tramadol concentration in females compared to males [1, 4] [%]	potency in producing analgesia relative to tramadol [2]	potency in producing analgesia relative to tramadol ([2]; listed as mono-O-desmethyltramadol)	binding to opioid receptors (affinity, in words) [3]	potency in opioid receptor binding relative to tramadol ([3]; M1 vs tramadol) [times]
COc1cccc([C@@]2(O)CCCC[C@H]2CN(C)C)c1 (racemic) [tramadol, (±) trans-2-[(dimethylamino)methyl]-1-(3-methoxyphenyl) cyclohexanol]	5.7	6.4	35	12				
CN(C)C[C@H]1CCCC[C@]1(O)c1cccc(O)c1 [Formula M1, mono-O-desmethyltramadol]					up to 6 times	about 6 times	high affinity	200
